Literature values, collected in patent publication EP3072528B1, “COMPOSITION COMPRISING VEMURAFENIB AND CATIONIC COPOLYMER BASED ON METHACRYLATES” (ratiopharm GmbH, priority 2015, dated 2016).

Conditions: reported; BCS IV compound

solubility in aqueous and physiological solvents: practically insoluble
Compound: CCCS(=O)(=O)Nc1ccc(F)c(C(=O)c2c[nH]c3ncc(-c4ccc(Cl)cc4)cc23)c1F [Vemurafenib base, N-(3-{[5-(4-chlorophenyl)-1H-pyrrolo[2,3-b]pyridin-3-yl]carbonyl}-2,4-difluorophenyl)propane-1-sulfonamide]
